In patent US20120101110A1, “Diaza-spiro[5.5]undecanes” (priority 2010, published 2012):

What was measured:
human orexin 1 receptors [1] = molecular target: T1, human orexin 1 receptors (Homo sapiens, UniProt O43613); experiment: Radioligand binding assay ([3H]-SB649868 competition), hOx1R; settings: competition with about 1 nM [3H]-SB649868; CHO or HEK cell membranes expressing human orexin 1 receptor
T1 sequence (O43613 1-425): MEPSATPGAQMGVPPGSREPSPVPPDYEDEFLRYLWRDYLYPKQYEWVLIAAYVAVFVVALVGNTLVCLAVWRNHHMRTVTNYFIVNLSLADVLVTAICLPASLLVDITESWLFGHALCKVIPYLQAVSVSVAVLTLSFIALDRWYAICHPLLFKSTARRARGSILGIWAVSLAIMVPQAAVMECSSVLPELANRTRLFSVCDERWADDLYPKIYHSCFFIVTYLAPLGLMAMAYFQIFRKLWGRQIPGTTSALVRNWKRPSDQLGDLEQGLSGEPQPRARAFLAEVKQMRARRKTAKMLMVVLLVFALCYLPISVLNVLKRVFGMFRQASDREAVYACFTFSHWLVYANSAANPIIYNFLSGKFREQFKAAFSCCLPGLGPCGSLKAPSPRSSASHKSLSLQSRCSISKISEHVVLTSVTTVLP
Experimental: (§1) The cell pellet was either stored at −80° C. or used directly. Before the experiments, cell membranes were re-suspended in binding assay buffer (10 mM HEPES, 0.5% (w/v) bovine serum albumin, pH 7.5) by homogenisation with a Polytron homogeniser at 50 Hz for 20 s. Cell membranes were also used as made available by commercial providers.
(§2) Bound radioactivity was measured, and data were analysed with the program XLFIT or Graphpad Prism. Protein concentration was determined according to the Bradford/BioRad Protein Assay Kit.
(§3) In competition experiments, cell homogenates (150 μl) were incubated in assay buffer (10 mM HEPES, pH 7.5, 0.5% (w/v) bovine serum albumin, 5 mM MgCl2, 1 mMCaCl2, and tween 0.05%) for 1 h at room temperature with about 1 nM of the radioligand [^3H]-SB649868, 66 Ci/mmole, 50 μl), and with various concentrations of compounds of the invention (50 μl) in triplicates; non-specific binding was determined in the presence of almorexant (10 μM). Reactions were terminated by vacuum filtration, 3 washes of ice cold wash buffer (Tris-HCl pH 7.4/10 mM, with NaCl 154 mM). Competition data is expressed in Table 2 as Kd [μM].

human orexin 2 receptors [2] = molecular target: T2, human orexin 2 receptors (Homo sapiens, UniProt O43614); experiment: Radioligand binding assay ([3H]-SB649868 competition), hOx2R; settings: competition with about 1 nM [3H]-SB649868; CHO or HEK cell membranes expressing human orexin 2 receptor; read-out: binding hOx2R Kd
T2 sequence (O43614 1-444): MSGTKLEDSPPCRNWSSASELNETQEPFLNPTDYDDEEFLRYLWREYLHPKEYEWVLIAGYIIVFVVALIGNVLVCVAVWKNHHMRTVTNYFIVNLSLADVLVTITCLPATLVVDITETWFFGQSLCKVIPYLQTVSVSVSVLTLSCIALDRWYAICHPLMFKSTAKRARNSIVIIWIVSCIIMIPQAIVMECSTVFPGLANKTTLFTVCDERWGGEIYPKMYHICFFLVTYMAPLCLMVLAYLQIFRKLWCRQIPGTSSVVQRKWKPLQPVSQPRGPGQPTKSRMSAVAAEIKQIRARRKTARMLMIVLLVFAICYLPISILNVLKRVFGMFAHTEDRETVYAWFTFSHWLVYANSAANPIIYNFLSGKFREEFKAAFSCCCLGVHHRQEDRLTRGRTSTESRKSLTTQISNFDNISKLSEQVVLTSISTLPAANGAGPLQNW
Experimental: as §1, §2
as §3, with “μM).” for “μM). Reactions were terminated by vacuum filtration, 3 washes of ice cold wash buffer (Tris-HCl pH 7.4/10 mM, with NaCl 154 mM). Competition data is expressed in Table 2 as Kd [μM].”

human orexin 2 receptors [3] = molecular target: T2, human orexin 2 receptors; experiment: Calcium accumulation in cells (FLIPR), hOx2R; assay type: cell-based; settings: cells expressing human orexin 2 receptor; inhibition of orexin A-induced calcium accumulation; Cheng and Prusoff correction
human orexin 1 receptors [4] = molecular target: T1, human orexin 1 receptors; experiment: Calcium accumulation in cells (FLIPR), hOx1R; settings: for inhibition at 10 µM: read-out: FLIPR hOx1R % inhibition value
Experimental: Cells expressing human orexin 1 or human orexin 2 receptors, were seeded at 8,000 cells/well in 384 well black-walled clear bottom, poly-D-lysine coated plates. After 24 h, the medium was removed and cells were washed once with phosphate buffered saline and serum-deprived overnight in assay buffer (130 mM NaCl, 5.4 mM KCl, 1.8 mM CaCl2, 0.8 mM MgSO4, 0.9 mM NaH2PO4, 25 mM glucose, 20 mM HEPES, pH 7.4) containing bovine serum albumin (1% w/v).
On the day of the experiment, the cells seeded in black plates were treated with assay buffer containing the Ca^2+sensitive fluorescent dye Fluo-4-AM (2 μM), and probenecid (0.1 mM). After 1 h plates were washed twice with, and resuspended in, assay buffer containing probenecid (0.1 mM) using a multi plate washer. The plates were placed into a FLIPR II (Fluorometric Imaging Plate Reader, Molecular Devices, Sunnyvale, Calif., USA) and baseline fluorescence (fluorescence light units, FLU) was measured (5 measurements, 2 S each; laser excitation 488 nm at 0.6-1 W, CCD camera exposure 0.4 s) before addition of buffer alone (basal) or containing test compounds (either compound of formula I alone, agonist alone or agonist in the presence of various concentrations of compounds of formula I). Fluorescence measurements were then continued every 1 S for 120 S followed by every 4 S for 240 S.
Compounds of formula I were tested usually in a concentration range from 10^−9 M to 10^−5 M. In the second round, performed one hour later (to allow for equilibration), Orexin A was tested either in the absence (calibration curves, Orexin A agonist controls) or in the presence of compounds of formula I to determine antagonism.
Inhibition data is expressed in Table 2 as Ki [μM], converted by the Cheng and Prusoff correction (Ki=IC50/1+(L/EC50)), where IC50 is the 50% inhibition value determined in concentration response inhibition curves, EC50 is the half maximal activation concentration determined for orexin A in concentration response curves and L is the concentration of orexin A used in inhibition experiments performed in with a submaximal concentration of orexin A in the presence of up to 8 increasing concentrations of compound of formula I. Inhibition data is also expressed in Table 2 as % inhibition value measured at a concentration of 10 μM of selected compounds of formula I.

SMILES	Kd (human orexin 1 receptors [1]) [nM]	Kd (human orexin 2 receptors [2]) [nM]	Ki (human orexin 2 receptors [3]) [nM]	inhibition at 10 µM (human orexin 1 receptors [4]) [%]	Ki (human orexin 1 receptors [4]) [nM]
Cc1cc(C)nc(N2CCC3(CCCN(Cc4ccccc4-c4nc(C)no4)C3=O)CC2)n1 [Example 1, 9-(4,6-dimethylpyrimidin-2-yl)-2-(2-(3-methyl-1,2,4-oxadiazol-5-yl)benzyl)-2,9-diazaspiro[5.5]undecan-1-one]	2020	66	–	–	–
Cc1cc(C)nc(N2CCC3(CCCN(Cc4ccccc4-n4nccn4)C3=O)CC2)n1 [Example 2, 2-(2-(2H-1,2,3-triazol-2-yl)benzyl)-9-(4,6-dimethylpyrimidin-2-yl)-2,9-diazaspiro[5.5]undecan-1-one]	> 10000	259	86	22	–
Cc1cc(C)nc(N2CCC3(CCCC(=O)N3Cc3cccc4[nH]ccc34)CC2)n1 [Example 3, 1-((1H-indol-4-yl)methyl)-9-(4,6-dimethylpyrimidin-2-yl)-1,9-diazaspiro[5.5]undecan-2-one]	483	12	0.9	–	381
COc1cc(C)nc(N2CCC3(CCCN(Cc4c[nH]c5ccccc45)C3=O)CC2)n1 [Example 4, 2-((1H-indol-3-yl)methyl)-9-(4-methoxy-6-methylpyrimidin-2-yl)-2,9-diazaspiro[5.5]undecan-1-one]	863	43	2.2	–	135
Cc1cc(C)nc(N2CCC3(CCCN(Cc4c[nH]c5ccccc45)C3=O)CC2)n1 [Example 5, 2-((1H-indol-3-yl)methyl)-9-(4,6-dimethylpyrimidin-2-yl)-2,9-diazaspiro[5.5]undecan-1-one]	966	35	10	–	870
Cc1cc(C)nc(N2CCC3(CCCN(Cc4cn(C)c5ccccc45)C3=O)CC2)n1 [Example 6, 9-(4,6-dimethylpyrimidin-2-yl)-2-((1-methyl-1H-indol-3-yl)methyl)-2,9-diazaspiro[5.5]undecan-1-one]	4540	153	26	–	1530
Cc1cncc(N2CCC3(CCCC(=O)N3Cc3c[nH]c4ccccc34)CC2)n1 [Example 7, 1-((1H-indol-3-yl)methyl)-9-(6-methylpyrazin-2-yl)-1,9-diazaspiro[5.5]undecan-2-one]	7440	698	86	14	–
Cc1cccc(N2CCC3(CCCN(Cc4c[nH]c5ccccc45)C3=O)CC2)n1 [Example 9, 2-((1H-indol-3-yl)methyl)-9-(6-methylpyridin-2-yl)-2,9-diazaspiro[5.5]undecan-1-one]	2430	265	54	–	1560
N#Cc1ccnc(N2CCC3(CCCN(Cc4c[nH]c5ccccc45)C3=O)CC2)c1 [Example 10, 2-(2-((1H-indol-3-yl)methyl)-1-oxo-2,9-diazaspiro[5.5]undecan-9-yl)isonicotinonitrile]	1720	116	20	–	1190
Cc1cncc(N2CCC3(CCCN(Cc4c[nH]c5ccccc45)C3=O)CC2)n1 [Example 11, 2-((1H-indol-3-yl)methyl)-9-(6-methylpyrazin-2-yl)-2,9-diazaspiro[5.5]undecan-1-one]	6590	244	23	–	1390
Cc1ccnc(N2CCC3(CCCN(Cc4c[nH]c5ccccc45)C3=O)CC2)n1 [Example 12, 2-((1H-indol-3-yl)methyl)-9-(4-methylpyrimidin-2-yl)-2,9-diazaspiro[5.5]undecan-1-one]	1170	56	30	–	1500
COc1ccnc(N2CCC3(CCCN(Cc4c[nH]c5ccccc45)C3=O)CC2)n1 [Example 13, 2-((1H-indol-3-yl)methyl)-9-(4-methoxypyrimidin-2-yl)-2,9-diazaspiro[5.5]undecan-1-one]	924	74	–	–	527
Cc1cc(C)nc(N2CCC3(CCCN(Cc4ccccc4-c4ccco4)C3=O)CC2)n1 [Example 15, 9-(4,6-dimethylpyrimidin-2-yl)-2-(2-(furan-2-yl)benzyl)-2,9-diazaspiro[5.5]undecan-1-one]	2830	109	13	–	855
Cc1cc(C)nc(N2CCC3(CCCN(Cc4cccc5c4OCCO5)C3=O)CC2)n1 [Example 20, 2-((2,3-dihydrobenzo[b][1,4]dioxin-5-yl)methyl)-9-(4,6-dimethylpyrimidin-2-yl)-2,9-diazaspiro[5.5]undecan-1-one]	8550	211	42	–	2530
Cc1cc(C)nc(N2CCC3(CCCN(Cc4cccc(-c5noc(C)n5)c4)C3=O)CC2)n1 [Example 22, 9-(4,6-dimethylpyrimidin-2-yl)-2-(3-(5-methyl-1,2,4-oxadiazol-3-yl)benzyl)-2,9-diazaspiro[5.5]undecan-1-one]	1300	151	31	–	755
Cc1cc(C#N)cc(N2CCC3(CCCN(Cc4cccc(-c5ncccn5)c4)C3=O)CC2)n1 [Example 28, 2-methyl-6-(1-oxo-2-(3-(pyrimidin-2-yl)benzyl)-2,9-diazaspiro[5.5]undecan-9-yl)isonicotinonitrile]	5140	150	49	–	1110
Cc1cc(C#N)cc(N2CCC3(CCCN(Cc4cccc(-c5ncc(C)o5)c4)C3=O)CC2)n1 [Example 29, 2-methyl-6-(2-(3-(5-methyloxazol-2-yl)benzyl)-1-oxo-2,9-diazaspiro[5.5]undecan-9-yl)isonicotinonitrile]	907	100	28	–	351
Cc1cc(C)nc(N2CCC3(CCCN(Cc4cccc(-c5ncccn5)c4)C3=O)CC2)n1 [Example 31, 9-(4,6-dimethylpyrimidin-2-yl)-2-(3-(pyrimidin-2-yl)benzyl)-2,9-diazaspiro[5.5]undecan-1-one]	3810	145	92	–	1610
Cc1cc(C#N)nc(N2CCC3(CCCN(Cc4cccc(-c5ncccn5)c4)C3=O)CC2)n1 [Example 32, 6-methyl-2-(1-oxo-2-(3-(pyrimidin-2-yl)benzyl)-2,9-diazaspiro[5.5]undecan-9-yl)pyrimidine-4-carbonitrile]	> 10000	383	59	–	1860
N#Cc1ccnc(N2CCC3(CCCN(Cc4cccc(-c5ncccn5)c4)C3=O)CC2)n1 [Example 33, 2-(1-oxo-2-(3-(pyrimidin-2-yl)benzyl)-2,9-diazaspiro[5.5]undecan-9-yl)pyrimidine-4-carbonitrile]	744	220	37	–	477
COC(=O)c1ccc2[nH]cc(CN3CCCC4(CCN(c5nc(C)cc(C)n5)CC4)C3=O)c2c1 [Example 115, Methyl 3-((9-(4,6-dimethylpyrimidin-2-yl)-1-oxo-2,9-diazaspiro[5.5]undecan-2-yl)methyl)-1H-indole-5-carboxylate]	52	3	–	–	–
